Measurements as given in patent publication US20230348473A1, “SUBSTITUTED PYRIDINES AS PARP1 INHIBITORS” (Xinthera, Inc., priority 2022, published 2023).

Experiments:
PARP1 = PARP1 (Homo sapiens (Human), UniProt P09874); test: Biochemical fluorescence polarization (FP) assay, PARPi-FL displacement, PARP1; assay type: binding; conditions: 20 nM protein, 3 nM PARPi-FL, 4 h
Method: (§1) To characterize our compounds, we utilized an assay measuring the displacement of a commercially available fluorescently labeled PARP 1/2 inhibitor (PARPi-FL, Tocris Biosciences, #6461) as exemplified in assays performed in WO2014/064149 and WO2021/013735A1. The assay was performed utilizing the following method: Compounds were dissolved in DMSO an Echo550 liquid handler was utilized to make serial dilations in the desired concentration range in Optiplate-384F plates. 100% DMSO was used for the high (with protein) and low (without protein) control samples. 20 nL of compound or DMSO alone was added to individual assay plate wells. […] The PARPi-FL was then added at a final concentration of 3 nM. The assay plate is centrifuged at 1000 rpm for 1 min and incubated for 4 h at room temperature. […] XLFit (equation 201) is used to calculate a reported IC50 for each compound.

PARP2 = PARP2 (Homo sapiens (Human), UniProt Q9UGN5); test: Biochemical fluorescence polarization (FP) assay, PARPi-FL displacement, PARP2; assay type: binding; conditions: 20 nM protein, 3 nM PARPi-FL, 4 h
Chain of PARP2 (Q9UGN5 whole entry): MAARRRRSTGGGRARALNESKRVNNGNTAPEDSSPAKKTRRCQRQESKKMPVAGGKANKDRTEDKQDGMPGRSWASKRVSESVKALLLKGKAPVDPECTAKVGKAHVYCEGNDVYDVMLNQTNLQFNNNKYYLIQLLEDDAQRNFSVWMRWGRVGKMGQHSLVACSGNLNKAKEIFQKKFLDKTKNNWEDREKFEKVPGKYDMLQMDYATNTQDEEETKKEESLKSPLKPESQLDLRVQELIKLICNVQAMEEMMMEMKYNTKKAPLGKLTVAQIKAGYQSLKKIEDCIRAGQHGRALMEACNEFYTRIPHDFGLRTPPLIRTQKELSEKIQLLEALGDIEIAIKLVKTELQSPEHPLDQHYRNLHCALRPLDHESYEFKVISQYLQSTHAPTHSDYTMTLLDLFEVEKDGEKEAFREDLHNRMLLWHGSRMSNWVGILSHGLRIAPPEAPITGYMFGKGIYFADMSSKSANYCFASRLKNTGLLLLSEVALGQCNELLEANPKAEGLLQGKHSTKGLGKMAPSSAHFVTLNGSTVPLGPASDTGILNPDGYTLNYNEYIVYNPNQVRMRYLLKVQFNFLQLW
Method: as §1

Chain of PARP1 (P09874 whole entry): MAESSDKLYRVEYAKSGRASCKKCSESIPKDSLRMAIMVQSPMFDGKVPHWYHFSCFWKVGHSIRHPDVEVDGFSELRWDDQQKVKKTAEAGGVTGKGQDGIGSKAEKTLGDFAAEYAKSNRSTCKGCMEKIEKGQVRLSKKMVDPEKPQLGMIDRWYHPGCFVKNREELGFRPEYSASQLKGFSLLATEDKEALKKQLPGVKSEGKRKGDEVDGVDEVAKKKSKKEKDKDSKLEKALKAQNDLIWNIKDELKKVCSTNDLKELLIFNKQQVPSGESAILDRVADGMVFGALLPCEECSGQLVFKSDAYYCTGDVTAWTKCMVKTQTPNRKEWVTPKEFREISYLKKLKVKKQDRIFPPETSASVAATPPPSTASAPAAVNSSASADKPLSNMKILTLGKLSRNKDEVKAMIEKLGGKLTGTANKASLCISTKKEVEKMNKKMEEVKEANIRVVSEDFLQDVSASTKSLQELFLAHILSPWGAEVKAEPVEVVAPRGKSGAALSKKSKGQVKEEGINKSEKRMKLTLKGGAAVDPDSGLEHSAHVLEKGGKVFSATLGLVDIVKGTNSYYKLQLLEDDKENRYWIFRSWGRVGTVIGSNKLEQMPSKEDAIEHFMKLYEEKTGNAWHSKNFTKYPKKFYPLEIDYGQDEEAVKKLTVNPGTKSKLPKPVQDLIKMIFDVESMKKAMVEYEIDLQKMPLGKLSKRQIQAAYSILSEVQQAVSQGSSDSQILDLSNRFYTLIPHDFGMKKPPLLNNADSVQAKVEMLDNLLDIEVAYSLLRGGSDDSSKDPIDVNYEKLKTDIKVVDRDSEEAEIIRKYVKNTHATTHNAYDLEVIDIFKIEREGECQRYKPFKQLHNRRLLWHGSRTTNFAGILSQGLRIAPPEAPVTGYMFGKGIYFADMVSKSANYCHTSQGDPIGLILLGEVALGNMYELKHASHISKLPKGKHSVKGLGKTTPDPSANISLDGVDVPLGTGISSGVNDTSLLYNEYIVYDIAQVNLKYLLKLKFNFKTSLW

Row | SMILES | IC50 (PARP1) [µM] | IC50 (PARP2) [µM]
1 | O=C(NC1CC1)c1ccc(N2CCN(Cc3ccc4c([nH]c(=O)c5ccnn54)c3F)CC2)c(F)n1 [Example 3] | 0.022 | > 100
2 | Cc1cc2c(=O)[nH]c3c(F)c(CN4CCN(c5ccc(C(=O)NC6CC6)nc5F)CC4)ccc3n2n1 [Example 4] | 0.016 | > 100
3 | CNC(=O)c1ccc(N2CCN(Cc3ccc4c([nH]c(=O)c5cc(C)nn54)c3F)CC2)c(F)n1 [Example 5] | 0.041 | > 100
4 | CNC(=O)c1ccc(N2CCN(Cc3ccc4c([nH]c(=O)c5ccoc54)c3F)CC2)c(F)n1 [Example 6, 6-fluoro-5-[4-({6-fluoro-4-oxo-5H-furo[3,2-c]quinolin-7-yl}methyl)piperazin-1-yl]-N-methylpyridine-2-carboxamide] | 0.021 | > 100
5 | CNC(=O)c1ccc(N2CCN(Cc3ccc4c([nH]c(=O)n5cccc45)c3F)CC2)c(F)n1 [Example 7, 6-fluoro-5-[4-({7-fluoro-5-oxo-6H-pyrrolo[1,2-c]quinazolin-8-yl}methyl)piperazin-1-yl]-N-methylpyridine-2-carboxamide] | 0.018 | > 100
6 | O=C(NCC(F)F)c1ccc(N2CCN(Cc3ccc4c([nH]c(=O)c5ccoc54)c3F)CC2)c(F)n1 [Example 11] | 0.014 | > 100
7 | Cc1cc2c(=O)[nH]c3c(F)c(CN4CCN(c5ccc(C(=O)NCC(F)F)nc5F)CC4)ccc3n2n1 [Example 13] | 0.025 | > 100
8 | O=C(NC1CC1)c1ccc(N2CCN(Cc3ccc4c([nH]c(=O)c5ccoc54)c3F)CC2)c(F)n1 [Example 14] | 0.01 | > 100
9 | O=C(NCC(F)F)c1ccc(N2CCN(Cc3ccc4c5c(c(=O)[nH]c4c3F)CCO5)CC2)c(F)n1 [Example 15] | 0.012 | > 100
10 | COCCNC(=O)c1ccc(N2CCN(Cc3ccc4c([nH]c(=O)c5cc(C)nn54)c3F)CC2)c(F)n1 [Example 17] | 0.014 | > 100
11 | CNC(=O)c1ccc(N2CCN(Cc3ccc4c([nH]c(=O)c5cnn(C)c54)c3F)CC2)c(F)n1 [Example 19, 6-fluoro-5-[4-({6-fluoro-1-methyl-4-oxo-5H-pyrazolo[4,3-c]quinolin-7-yl}methyl)piperazin-1-yl]-N-methylpyridine-2-carboxamide] | 0.1 | > 100
12 | CNC(=O)c1ccc(N2CCN(Cc3ccc4c([nH]c(=O)c5cn(C)nc54)c3F)CC2)c(F)n1 [Example 20, 6-fluoro-5-[4-({6-fluoro-2-methyl-4-oxo-5H-pyrazolo[4,3-c]quinolin-7-yl}methyl)piperazin-1-yl]-N-methylpyridine-2-carboxamide] | 0.011 | > 100
13 | CNC(=O)c1ccc(N2CCN(Cc3ccc4c([nH]c(=O)c5c(C)cnn54)c3F)CC2)c(F)n1 [Example 23] | 0.026 | > 100
14 | CNC(=O)c1ccc(N2CCN(Cc3ccc4c5c(c(=O)[nH]c4c3F)CCO5)CC2)cn1 [Example 26] | 0.013 | > 100
15 | CNC(=O)c1ccc(N2CCN(Cc3ccc4c([nH]c(=O)c5c(F)cnn54)c3F)CC2)c(F)n1 [Example 28, 5-[4-({3,6-difluoro-4-oxo-5H-pyrazolo[1,5-a]quinoxalin-7-yl}methyl)piperazin-1-yl]-6-fluoro-N-methylpyridine-2-carboxamide] | 0.01 | > 100
